Experimental data from patent publication US6737383B1, “Herbicidal oxadiazolidines” (priority 1999, dated 2004).

What was measured:
crabgrass = test: Test B pre/postemergence crabgrass; format: in vivo, Digitaria sanguinalis
Summary of the method: (§1)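 Response is a visual 0-to-10 score relative to untreated plants, where 0 means no effect and 10 means complete control, taken twelve to sixteen days after application. Treatments went onto soil at planting and onto foliage of 1- to 4-leaf plants, using a surfactant-containing non-phytotoxic solvent.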

corn = test: Test B pre/postemergence corn; format: in vivo, Zea mays
Summary of the method: as §1

purple nutsedge = test: Test B pre/postemergence purple nutsedge; format: in vivo, Cyperus rotundus
Summary of the method: as §1

velvetleaf = test: Test B pre/postemergence velvetleaf; format: in vivo, Abutilon theophrasti; conditions: for Plant response rating, Velvetleaf: Rate 250 g/ha
Summary of the method: as §1

wild oat = test: Test B pre/postemergence wild oat; format: in vivo, Avena fatua; conditions: for Plant response rating, Wild oats: Rate 250 g/ha
Summary of the method: as §1

rice = test: Test B flood test rice; format: in vivo, Oryza sativa
Summary of the method: (§2)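 Read-out is a visual response score from 0 (no effect) to 10 (complete control), assigned by comparison with untreated controls. Treatment was applied at the 2-leaf stage, and plants stayed in the greenhouse for twelve to sixteen days before scoring.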

duck salad = test: Test B flood test duck salad; format: in vivo, Heteranthera limosa
Summary of the method: as §2

pigweed = test: Test B pre/postemergence pigweed; format: in vivo, Amaranthus retroflexus
Summary of the method: as §1

[1] = Postemergence, Rate 125 g/ha, scale of 0 to 10 where 0 is no effect and 10 is complete control
[2] = Postemergence, Rate 250 g/ha, scale 0 to 10, 0 no effect, 10 complete control
[3] = Preemergence, Rate 62 g/ha, scale 0 to 10 (0 no effect, 10 complete control)
[4] = Preemergence, Rate 125 g/ha, scale 0 to 10 (0 no effect, 10 complete control)
[5] = Preemergence, Rate 250 g/ha, scale of 0 to 10 where 0 is no effect and 10 is complete control
[6] = Preemergence, Rate 500 g/ha, scale 0 to 10 (0 no effect, 10 complete control)
[7] = Rate 500 g/ha, Postemergence, scale 0 to 10, 0 no effect, 10 complete control
[8] = Rate 62 g/ha, Postemergence, scale of 0 to 10 where 0 is no effect and 10 is complete control
[9] = Preemergence, Rate 125 g/ha, 0 is no effect, 10 is complete control
[10] = Preemergence, scale of 0 to 10 where 0 is no effect and 10 is complete control
[11] = Postemergence, scale 0 to 10, 0 is no effect, 10 is complete control
[12] = Postemergence (flood test species), Rate 125 g/ha, scale of 0 to 10 where 0 is no effect and 10 is complete control
[13] = Rate 62 g/ha, Postemergence section, flood test species, scale of 0 to 10 where 0 is no effect and 10 is complete control
[14] = Rate 250 g/ha, headed Pre-emergence (flood test species), scale 0 to 10 (0 no effect, 10 complete control)
[15] = Rate 500 g/ha, headed Pre-emergence (flood test species), scale 0 to 10 (0 no effect, 10 complete control)
[16] = Rate 500 g/ha, listed under Postemergence (flood test species), scale 0 to 10, 0 no effect, 10 complete control
[17] = Rate 1000 g/ha, Pre-emergence (as headed), scale 0 to 10
[18] = Rate 2000 g/ha, Pre-emergence (as headed), scale 0 to 10

C=CCn1c(=O)on(C(=O)N(c2ccc(Cl)cc2)C(C)C)c1=O [Compound 105]
Crabgrass plant response rating (crabgrass; [1]): 7
Crabgrass plant response rating (crabgrass; [2]): 7
Crabgrass plant response rating (crabgrass; [3]): 2
Plant response rating, Crabgrass (crabgrass; [4]): 8
Plant response rating, Crabgrass (crabgrass; [5]): 8
Crabgrass plant response rating (crabgrass; [6]): 9
Crabgrass plant response rating (crabgrass; [7]): 9
Corn plant response rating (corn; [1]): 0
Corn plant response rating (corn; [2]): 0
Corn plant response rating (corn; [3]): 0
Plant response rating, Corn (corn; [4]): 0
Plant response rating, Corn (corn; [5]): 2
Corn plant response rating (corn; [6]): 3
Corn plant response rating (corn; [8]): 0
Corn plant response rating (corn; [7]): 2
Nutsedge plant response rating (purple nutsedge; [1]): 0
Nutsedge plant response rating (purple nutsedge; [2]): 0
Nutsedge plant response rating (purple nutsedge; [3]): 0
Plant response rating, Nutsedge (purple nutsedge; [4]): 0
Plant response rating, Nutsedge (purple nutsedge; [5]): 0
Nutsedge plant response rating (purple nutsedge; [6]): 0
Nutsedge plant response rating (purple nutsedge; [8]): 0
Nutsedge plant response rating (purple nutsedge; [7]): 2
Velvetleaf plant response rating (velvetleaf; [1]): 0
Velvetleaf plant response rating (velvetleaf; [3]): 0
Velvetleaf plant response rating (0 to 10 scale) (velvetleaf; [9]): 4
Plant response rating, Velvetleaf (velvetleaf; [10]): 5
Velvetleaf plant response rating (velvetleaf; [6]): 6
Velvetleaf plant response rating (velvetleaf; [8]): 0
Plant response rating, Velvetleaf (velvetleaf; [11]): 3
Velvetleaf plant response rating (velvetleaf; [7]): 4
Wild oats plant response rating (wild oat; [1]): 0
Wild oats plant response rating (wild oat; [3]): 2
Wild oats plant response rating (0 to 10 scale) (wild oat; [9]): 3
Plant response rating, Wild oats (wild oat; [10]): 3
Wild oats plant response rating (wild oat; [6]): 9
Wild oats plant response rating (wild oat; [8]): 0
Plant response rating, Wild oats (wild oat; [11]): 2
Wild oats plant response rating (wild oat; [7]): 4
Rice plant response rating (rice; [12]): 0
Rice plant response rating (rice; [13]): 0
Plant response rating, Rice (rice; Rate 250 g/ha, Postemergence (flood test), scale 0 to 10, 0 is no effect, 10 is complete control): 0
Rice plant response rating (rice; [14]): 0
Plant response rating, Rice (rice; [15]): 0
Rice plant response rating (rice; [16]): 0
Rice plant response rating (rice; [17]): 0
Rice plant response rating (rice; [18]): 0
Ducksalad plant response rating (duck salad; [12]): 0
Ducksalad plant response rating (duck salad; [13]): 0
Ducksalad plant response rating (duck salad; [14]): 0
Plant response rating, Ducksalad (duck salad; [15]): 0
Ducksalad plant response rating (duck salad; [16]): 0
Ducksalad plant response rating (duck salad; [17]): 0
Ducksalad plant response rating (duck salad; [18]): 0
Ducksalad plant response rating (duck salad; flood test, listed under Postemergence, Rate 250 g/ha, scale 0 to 10, 0 no effect, 10 complete control): 0
Redroot pigweed plant response rating (pigweed; [1]): 0
Redroot pigweed plant response rating (pigweed; [3]): 0
Plant response rating, Redroot pigweed (pigweed; [4]): 3
Plant response rating, Redroot pigweed (pigweed; [5]): 9
Redroot pigweed plant response rating (pigweed; [6]): 10
Redroot pigweed plant response rating (pigweed; [8]): 0
Plant response rating, Redroot pigweed (pigweed; Rate 250 g/ha, Postemergence, scale 0 to 10, 0 is no effect, 10 is complete control): 0
Redroot pigweed plant response rating (pigweed; [7]): 3
